ChEMBL document CHEMBL1201862, “PubChem BioAssay data set” (2004)
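Tested at 5 concentrations; 48 h exposure; 96-well plates; endpoints linearly interpolated, else capped at highest concentration. At the GI50, growth is halved.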 Calls of active or inactive are those of the source. Cut-off read from the data, not from the text of the source: active = GI50 up to about 1.1 µM and inactive = higher. Residues, ends and D or L forms follow the SMILES beside them. *: point of attachment. Boc = CC(C)(C)OC(=O)*

Experiments:
Test in all cases: NCI tumour cell line growth inhibition, 48 h
SF-539 = tested on: SF-539
NCI/ADR-RES = tested on: NCI/ADR-RES
IGROV-1 = tested on: IGROV-1
OVCAR-5 = tested on: OVCAR-5
HT-29 = tested on: HT-29
LOX IMVI = tested on: LOX IMVI
HCT-15 = tested on: HCT-15
OVCAR-4 = tested on: OVCAR-4
TK-10 = tested on: TK-10
A549 = tested on: A549
RXF 393 = tested on: RXF 393
SNB-19 = tested on: SNB-19
SF-268 = tested on: SF-268
UACC-257 = tested on: UACC-257
M14 = tested on: M14
CAKI-1 = tested on: CAKI-1
786-0 = tested on: 786-0
MOLT-4 = tested on: MOLT-4
K562 = tested on: K562
SR = tested on: SR

| SMILES | GI50 (SF-539) | GI50 (NCI/ADR-RES) | GI50 (IGROV-1) | GI50 (OVCAR-5) | GI50 (HT-29) | GI50 (LOX IMVI) | GI50 (HCT-15) [µM] | GI50 (OVCAR-4) | GI50 (TK-10) | GI50 (A549) | GI50 (RXF 393) | GI50 (SNB-19) | GI50 (SF-268) | GI50 (UACC-257) | GI50 (M14) | GI50 (CAKI-1) | GI50 (786-0) | GI50 (MOLT-4) | GI50 (K562) | GI50 (SR) |
| --- | --- | --- | --- | --- | --- | --- | --- | --- | --- | --- | --- | --- | --- | --- | --- | --- | --- | --- | --- | --- |
| O=C1c2cccc3cccc(c23)C(=O)N1O | 50.9 µM (inactive) | > 100 µM (inactive) | 20.2 µM (inactive) | > 100 µM (inactive) | 51.8 µM (inactive) | 53.2 µM (inactive) | 40.9 | 57.8 µM (inactive) | > 100 µM (inactive) | 77.1 µM (inactive) | 24 µM (inactive) | 95.1 µM (inactive) | 70.5 µM (inactive) | > 100 µM (inactive) | 51.9 µM (inactive) | 49.8 µM (inactive) | 49.9 µM (inactive) | 69.7 µM (inactive) | 36.7 µM (inactive) |  |
| CNC(=O)C(C)C1CCC2(C)C=CC(=O)C(C)=C2C1O (configuration not stated) | > 100 µM (inactive) | > 47 µM (inactive) | > 55.2 µM (inactive) | > 100 µM (inactive) | > 100 µM (inactive) | > 100 µM (inactive) | > 100 | > 100 µM (inactive) |  | > 48.8 µM (inactive) | > 100 µM (inactive) | > 100 µM (inactive) | > 100 µM (inactive) | > 100 µM (inactive) |  | 28.5 µM (inactive) |  | > 100 µM (inactive) | > 100 µM (inactive) |  |
| O=C(CC1=NCCN1)c1ccccc1 | > 750 µM (inactive) | > 750 µM (inactive) | > 750 µM (inactive) | > 750 µM (inactive) | > 750 µM (inactive) | > 750 µM (inactive) | > 750 | > 750 µM (inactive) |  | > 213 µM (inactive) | > 750 µM (inactive) | > 750 µM (inactive) | > 750 µM (inactive) | > 750 µM (inactive) |  | > 750 µM (inactive) |  | > 750 µM (inactive) | > 750 µM (inactive) |  |
| CN(C)CN1C(=O)/C(=N\n2c(S)nnc2-c2ccncc2)c2ccccc21 | 23.5 µM (inactive) | 41.9 µM (inactive) | 38.5 µM (inactive) | > 100 µM (inactive) | 22.2 µM (inactive) | 22.9 µM (inactive) | 28.1 | 17.1 µM (inactive) | 41.9 µM (inactive) | 55 µM (inactive) | 17 µM (inactive) | 54.5 µM (inactive) | 57.5 µM (inactive) | 15.5 µM (inactive) | 24.8 µM (inactive) | 69.3 µM (inactive) | 16.9 µM (inactive) | 12.1 µM (inactive) | 26.5 µM (inactive) |  |
| N/C(=N\c1c([N+](=O)[O-])cnc2ccccc12)N1CCOCC1 | > 100 µM (inactive) | 95.9 µM (inactive) | > 100 µM (inactive) | > 100 µM (inactive) | > 100 µM (inactive) | > 100 µM (inactive) | > 100 | > 100 µM (inactive) | > 100 µM (inactive) | > 100 µM (inactive) |  | > 100 µM (inactive) | > 100 µM (inactive) | > 10 µM (inactive) | > 100 µM (inactive) | > 100 µM (inactive) | > 100 µM (inactive) | > 100 µM (inactive) | > 100 µM (inactive) | > 100 µM (inactive) |
| O=C(CCC(=O)OCC1OC(O)(CC2OC(CO)C(O)C(O)C2O)C(O)C1O)OCc1ccccc1 (configuration not stated) | > 100 µM (inactive) | > 100 µM (inactive) | > 100 µM (inactive) | > 100 µM (inactive) | > 100 µM (inactive) | > 100 µM (inactive) | > 100 | > 100 µM (inactive) | > 100 µM (inactive) | > 100 µM (inactive) | > 100 µM (inactive) | > 100 µM (inactive) | > 100 µM (inactive) | > 100 µM (inactive) | > 100 µM (inactive) | > 100 µM (inactive) | > 100 µM (inactive) |  | > 100 µM (inactive) |  |
| O=c1cnnc2sc(=S)[nH]n12 | > 100 µM (inactive) | 30.1 µM (inactive) | 24 µM (inactive) | > 100 µM (inactive) | 39.8 µM (inactive) | 4.13 µM (inactive) | 19.6 | 16.7 µM (inactive) |  | 46.7 µM (inactive) |  | 27.4 µM (inactive) | 5.04 µM (inactive) | 15.9 µM (inactive) | 84.1 µM (inactive) | 21.9 µM (inactive) | 22.5 µM (inactive) | 15 µM (inactive) | 15.6 µM (inactive) | 22.4 µM (inactive) |
| COC(=O)[C@]1(C)CCCn2c(=O)n(-c3ccccc3)c(=O)n21 | > 100 µM (inactive) | > 100 µM (inactive) | > 100 µM (inactive) | > 100 µM (inactive) | > 100 µM (inactive) | > 100 µM (inactive) | > 100 | > 100 µM (inactive) | > 100 µM (inactive) | > 100 µM (inactive) | > 100 µM (inactive) | > 100 µM (inactive) | > 100 µM (inactive) | > 100 µM (inactive) | > 100 µM (inactive) | > 100 µM (inactive) | > 100 µM (inactive) | > 100 µM (inactive) | > 100 µM (inactive) |  |
| CC(C)C(=O)Nc1cc(C(F)(F)F)ccc1[N+](=O)[O-] | > 100 µM (inactive) | > 100 µM (inactive) | > 100 µM (inactive) | > 100 µM (inactive) | > 100 µM (inactive) | > 100 µM (inactive) | > 100 | > 100 µM (inactive) | > 100 µM (inactive) | > 100 µM (inactive) | > 100 µM (inactive) | > 100 µM (inactive) | > 100 µM (inactive) | > 100 µM (inactive) | > 100 µM (inactive) | > 100 µM (inactive) | > 100 µM (inactive) | > 100 µM (inactive) | 50.9 µM (inactive) |  |
| CCOC(=O)C(NC(=O)c1cccc(Cl)c1)(Nc1ccc(S(=O)(=O)Nc2cc(C)on2)cc1)C(F)(F)F (configuration not stated) | > 100 µM (inactive) | > 100 µM (inactive) | > 100 µM (inactive) | > 100 µM (inactive) | > 100 µM (inactive) | > 100 µM (inactive) | > 100 | > 100 µM (inactive) | > 100 µM (inactive) | > 100 µM (inactive) | 42.5 µM (inactive) | > 100 µM (inactive) | > 100 µM (inactive) | > 100 µM (inactive) | > 100 µM (inactive) | > 100 µM (inactive) | > 100 µM (inactive) | > 100 µM (inactive) | > 100 µM (inactive) |  |
| S=C(N/N=C/c1ccccn1)N1CCCCCC1 | < 0.0288 µM (active) | < 0.01 µM (active) | < 0.01 µM (active) | < 0.0458 µM (active) | < 0.01 µM (active) | < 0.01 µM (active) | < 0.01 |  | 0.0101 µM (active) | < 0.0142 µM (active) |  | 0.416 µM (active) | < 0.0121 µM (active) | < 0.01 µM (active) | < 0.01 µM (active) | < 0.0423 µM (active) | < 0.01 µM (active) | < 0.01 µM (active) | < 0.01 µM (active) | < 0.01 µM (active) |
| COc1ccc(CC2(O)C3CC4CCC2C4C3)cc1 (configuration not stated) |  | 44.7 µM (inactive) | > 100 µM (inactive) | > 100 µM (inactive) | 58.1 µM (inactive) | > 100 µM (inactive) | > 100 | > 100 µM (inactive) | 69.3 µM (inactive) | 79.4 µM (inactive) |  | > 100 µM (inactive) | > 100 µM (inactive) | 38.5 µM (inactive) | > 100 µM (inactive) | > 100 µM (inactive) | > 100 µM (inactive) | 45 µM (inactive) | 49.1 µM (inactive) | 58.7 µM (inactive) |
| Nc1cc(O)c2cc(/N=N/c3ccc(/N=N/c4ccc(/N=N/c5ccc6cc(S(=O)(=O)O)cc(S(=O)(=O)O)c6c5)c5ccccc45)c4cc(S(=O)(=O)O)ccc34)c(S(=O)(=O)O)cc2c1 | > 100 µM (inactive) | > 100 µM (inactive) | > 100 µM (inactive) | > 100 µM (inactive) | > 90.2 µM (inactive) | > 100 µM (inactive) | 42.4 | > 100 µM (inactive) |  | 96.8 µM (inactive) | > 100 µM (inactive) | > 100 µM (inactive) | > 100 µM (inactive) | > 100 µM (inactive) |  |  |  | 64.7 µM (inactive) | > 31.6 µM (inactive) |  |
| COc1cc(C2c3cc4c(cc3[C@@H](Oc3ccc(F)cc3)C3COC(=O)[C@H]23)OCO4)cc(OC)c1O (some centres not stated) | 0.209 µM (active) | 0.22 µM (active) | 1.32 µM (inactive) | > 100 µM (inactive) | 0.284 µM (active) | 0.578 µM (active) | 0.364 | 6.79 µM (inactive) |  | 0.405 µM (active) | 0.234 µM (active) |  | 0.679 µM (active) | 0.59 µM (active) |  | 0.456 µM (active) |  | 0.359 µM (active) | 0.457 µM (active) |  |
| COc1cc2c(cc1OC)-c1c3c(cc4c1[C@@H](C2)N(C)CC4)OCO3 | 5.94 µM (inactive) | 5.62 µM (inactive) | 9.62 µM (inactive) | 9.64 µM (inactive) | 6.4 µM (inactive) | 3.78 µM (inactive) | 5.77 | 8.26 µM (inactive) |  | 3.34 µM (inactive) | 8.04 µM (inactive) | 5.74 µM (inactive) | 7.69 µM (inactive) | 11.6 µM (inactive) |  | 6.01 µM (inactive) |  | 3.85 µM (inactive) | 5.36 µM (inactive) |  |
| CC(NC(=O)C(NC(=O)OC(C)(C)C)C(C)C)C(=O)N1CCCC1C(=O)NCC(=O)NC(C(=O)NCC(=O)O)C(C)C (configuration not stated) (Boc-VAPGVG-OH; configuration not given here) | > 100 µM (inactive) | > 100 µM (inactive) | > 100 µM (inactive) | > 100 µM (inactive) | > 100 µM (inactive) | > 100 µM (inactive) | > 100 | > 100 µM (inactive) | > 100 µM (inactive) |  |  | > 100 µM (inactive) | > 100 µM (inactive) | > 100 µM (inactive) | > 100 µM (inactive) | > 100 µM (inactive) | > 100 µM (inactive) | > 100 µM (inactive) | > 100 µM (inactive) | > 100 µM (inactive) |
